Source: patent publication US20090074722A1, “Products and methods for treating PTP lar diseases” (MAX-PLANCK-GESELLSCHAFT ZUR, priority 1999, published 2009)

Experiments:
[1] = tested on: NBT II cells; test: In vitro wound assay (migration of NBT II cells); type: cell-based, rat
Description: FIGS. 1A and 1B show the migration of epithelial NBT II cells under varying conditions. […] Twenty-four hours after plating, the confluent cell monolayer was scratched as described in the Examples. EGF (100 ng/mL) or Ultroser G (2%) were added. Wound closure was documented by photography. The calibration bar indicates 80 pn. Migration Assays-For in vitro wound assays, NBT II cells were plated at a density of 7×10^4 cells/cm^2. After 24 hours the confluent monolayer was scratched with a pipette tip to create a cell free area, growth factors were added, and wound closure was documented by photography. For scatter assays, cells were plated at a cell density of 1×10^4 cells/cm^2. Growth factors were added after 24 hours, and the morphology of cells and the dispersion of small colonies were documented by photography. Quantification of migration was performed by counting single cells with fibroblastoid migration morphology compared to cells in groups with epithelial morphology in different, randomly chosen microscopic fields. 1000 cells per dish were counted. All migration assays were performed in triplicate. Tyrosine kinases (TK), mitogen-activated protein kinase (MAPK) or phosphatidylinositol-3-kinase (Pl3K), were inhibited by Genistein (250 μM; Biomol), added one hour before addition of the growth factors. As a control, the solvent DMSO was used. DNA synthesis was inhibited by the specific inhibitor of DNA polymerase, α Aphidicolin (1.5 μM; Serva) 1 hour before adding the growth factors. Migration of epithelial cells in tissue culture represents in many aspects a model system of the epithelial-mesenchymal transition ([…], et al. (1994) Int. Rev. Cytol. 155, 49-9). The rat bladder carcinoma cell line NBT II (Toyoshima, et al. (1971) J. Nat. Cancer Inst. 47, 979-985) was used, since certain growth factors and components of the extracellular matrix (ECM) induce migration of these cells (Valles, et al. (1990) Proc. Natl. Acad. Sci. USA 87, 1124-1128; Tchao, R. (1982) Cell Motil. 4, 333-341; Tucker, et al. (1990) Cancer Res. 50, 129-137).

[2] = tested on: free, uncomplexed β-catenin; test: Affinity precipitation of free β-catenin with GST-E-cadherin cytoplasmic fusion protein; type: cell-based, rat; conditions: EGF 100 ng/mL
Description: NBT II cells were plated at a density of 1×10^4 cells/cm^2. Twenty-four hours later EGF (100 ng/mL) was added for the indicated time intervals. 30 minutes before lysis Na-orthovanadate (1 mM) was added. Subsequently affinity precipitations were performed with 5 μg of a GST/E-cadherin cytoplasmic protein or GST in a three-fold molar excess. Proteins were separated by SDS-PAGE, and the levels of free, uncomplexed β-catenin were analyzed by Western blotting with an anti-β-catenin-antibody (top). […] Note that in comparison to FIG. 2, cells were pretreated for only 30 minutes with Na-orthovanadate. Arrows indicate the proteins of interest. Molecular mass standards in kilodaltons are shown on the left.
NBT II cells infected with the empty vector pLXSN (left) or human PTP LAR (right) were plated at 1×10^4 cells/cm^2 and stimulated after 24 h with EGF (100 ng/mL) for the indicated time intervals. Na-orthovanadate pretreatment was omitted to avoid irreversible inhibition of protein tyrosine phosphatase activity. Cells were lysed and in vitro associations were performed with 5 μg of the GST-E-cadherin cytoplasmic protein or GST in a three-fold molar excess. Proteins were separated by SDS-PAGE, and the levels of free, uncomplexed β-catenin were analyzed by Western blotting with an anti-β-catenin antibody (top). […] Arrows indicate the proteins of interest. […]

[3] = tested on: β-catenin and plakoglobin; test: Tyrosine phosphorylation of β-catenin and plakoglobin in migrating NBT II cells (immunoprecipitation, Western blot); type: cell-based, rat; conditions: pretreatment with 1 mM Na-orthovanadate
Description: NBT II cells were plated at a density of 1×10^4 cells/cm^2. Twenty-four hours later growth factors were added to induce migration (EGF: 100 ng/mL; aFGF: 30 ng/mL including 50 μg/mL heparin; Ultroser G: 2%). Ninety minutes before lysis, Na-orthovanadate (1 mM) was added (right) or not (left). As a positive control, cells were treated for 10 minutes with pervanadate. After lysis the cadherin/catenin complex was immunoprecipitated and precipitates were separated by SDS-PAGE. Tyrosine phosphorylation levels were analyzed by Western blotting with an anti-phosphotyrosine antibody (top). The membranes were reprobed with specific antibodies to E-cadherin (middle) or the catenins (bottom) to assure equal amounts of precipitated proteins. Highly tyrosine phosphorylated β-catenin (as hereafter pervanadate treatment) was not efficiently immunodecorated in the reblot. Arrows indicate the proteins of interest. Molecular mass standards in kilodaltons are shown on the left.
Transient Expression, Cell Lysis, and Immunoprecipitation—Transient transfection of human 293 embryonic kidney cells was performed as described (Chen, et al. (1987) Mol. Cell. Biol. 7, 2745-2752, hereby incorporated herein by reference in its entirety, including any drawings, figures, or tables). For biochemical analysis, NBT II cells were plated at a density of 1×10^4 cells/cm^2 at the day before lysis. […]

[4] = tested on: NBT II cells; test: Scatter assay of NBT II cells after EGF treatment; type: cell-based, rat; conditions: ectopic expression, about twice the PTP LAR expression of parental cells; EGF 100 ng/mL
Description: FIGS. 7A and 7B show a scatter assay of NBT II pLXSN and NBT II hPTP LAR cells. In FIG. 7A, NBT II cells infected with the empty vector pLXSN (left) or human PTP LAR (right) were plated at 1×10^4 cells/cm^2 and stimulated 24 h later with EGF (100 ng/mL) as indicated. After 7 h, the migration morphology was documented by photography.
To this end, 1000 cells per dish from randomly chosen microscopic fields were counted; assays were performed in triplicate. A cell was judged as a migrating cell when it had changed from a cobblestone-like, epithelial morphology to a migrating, fibroblastoid phenotype.
Migration Assays—For in vitro wound assays, NBT II cells were plated at a density of 7×10^4 cells/cm^2. After 24 hours the confluent monolayer was scratched with a pipette tip to create a cell free area, growth factors were added, and wound closure was documented by photography. For scatter assays, cells were plated at a cell density of 1×10^4 cells/cm^2. Growth factors were added after 24 hours, and the morphology of cells and the dispersion of small colonies were documented by photography. Quantification of migration was performed by counting single cells with fibroblastoid migration morphology compared to cells in groups with epithelial morphology in different, randomly chosen microscopic fields. 1000 cells per dish were counted. All migration assays were performed in triplicate. […]

[5] = tested on: NBT II cells; test: DNA-synthesis and proliferation rate of NBT II-hPTP LAR cell lines; type: cell-based, rat; conditions: ectopic expression in NBT II cells
[6] = tested on: NBT II cells; test: Tumor formation in nude mice; type: in vivo, Swiss nude mice; conditions: NBT II hPTP LAR cells injected subcutaneously into flank, 2×10^6/50 μL
Description: NBT II cells, infected with the empty vector pLXSN (filled triangle) or human PTP LAR (filled square), were injected (2×10^6/50 μL) subcutaneously into the flank region of Swiss nude mice. Tumor formation was monitored.
Tumor formation in Nude Mice—NBT II cells were resuspended at a cell density of 2×10^6/50 μL in MEM and injected subcutaneously into the flank region of Swiss nude mice (IGR Villejuif, Paris, France). Tumor formation was monitored by measuring the width (W) and length (L) of the tumors with W<L. The tumor volume was calculated according to the formula (W^2×L×π/6). Assays were performed at least in triplicate.

[7] = inhibition of PI3K or MAPK, concentration not given

C[C@@]1(CO)[C@H](O)CC[C@@]2(C)[C@H]1CC[C@H]1C[C@@H]3C[C@@]12CC[C@]3(O)CO [Aphidicolin]
effect on cell migration (wound closure) ([1]; Aphidicolin 1.5 μM, added 1 hour before the growth factors, inhibition of DNA-synthesis): did not interfere with migration

EGF: growth factor used to induce epithelial cell migration [reference compound]
free pool of β-catenin ([2]; NBT II cells): increase of the free pool of β-catenin

[Na+].[Na+].[Na+].[O]=[V]([O-])([O-])[O-] [Na-orthovanadate]
tyrosine phosphorylation of β-catenin and plakoglobin [3]: increased tyrosine phosphorylation

COc1cccc(-c2cc(=O)c3ccccc3o2)c1N [PD98059]
effect on cell migration (wound closure) [1, 7]: completely abolished cell migration

hPTP LAR: full-length human PTP LAR ectopically expressed in NBT II cells by retroviral gene transfer (pLXSN)
EMT and motility relative to vector-control infected cell lines (NBT II pLXSN) [4]: about 40%
DNA-synthesis and proliferation rate [5]: not affected
tyrosine phosphorylation and increase of the free pool of β-catenin ([2]; NBT II-hPTP LAR-expressing cells, no Na-orthovanadate): neither tyrosine phosphorylation, nor an increase in the free pool of β-catenin were detectable
tumor growth in comparison to NBT II pLXSN cells [6]: significantly reduced tumor growth

O=c1cc(N2CCOCC2)oc2c(-c3ccccc3)cccc12 [ly295002]
effect on cell migration (wound closure) [1, 7]: completely abolished cell migration

O=c1c(-c2ccc(O)cc2)coc2cc(O)cc(O)c12 [Genistein]
effect on cell migration (wound closure) ([1]; Genistein 250 μM, added one hour before the growth factors, inhibition of tyrosine kinases): completely abolished cell migration
